Measured values taken from patent US9096593B2, “Compounds and methods for kinase modulation, and indications therefor” (Plexxikon Inc., priority 2009, dated 2015).

Assays:
[1] = Turbidity assay of relative solubility in aqueous buffers; format: physicochemical; conditions: pH 4.5 (SIF)
Description: As an indication of relative solubility, the turbidity of compounds in aqueous solutions is assessed. To assess possible compound properties in different physiological compartments, such as stomach, intestine, and blood, a series of aqueous buffers with varying pH is used. Thus each compound is diluted into four different physiologically relevant buffers and solution turbidity is measured by spectrophotometry.
Compounds are dissolved at a concentration of 25 mM in dimethyl sulfoxide, then serially diluted 1:1 into a 96 well plate, diluting 10 times in pure dimethyl sulfoxide, with the final well of each row a dimethyl sulfoxide blank. In an assay plate, 99 μL of appropriate buffer is added to each well, and 1 μL of each sample dilution is added to the buffer, achieving a range of final total concentrations in aqueous solutions having different pH. The buffers used are Simulated Gastric Fluid (SGF-pH 1.5) 0.5M NaCl, pH 1.5; Simulated Intestinal fluid (SIF-pH 4.5 and pH 6.8) 0.05M NaH2PO4, pH 4.5 and 6.8; and Hepes Buffer (HEPES-pH 7.4) 10 mM HEPES, 150 mM NaCl, pH 7.4. Control compounds pyrene, estriol and propranolol HCl are also assessed. Plates are spun and then mixed for 1 minute, and the absorbance is read using a Tecan Safire II to read wavelengths in the visible range (490, 535, and 650 nm) at four locations per well, reflecting the degree of turbidity present. The average optical density for each wavelength in each well is graphed vs. compound concentration, and the concentration at which the curve crosses a threshold O.D. of 0.01 for each wavelength is reported as the endpoint turbidity assay result. The average of the three wavelengths is used to compare turbidity of compounds. Compounds are considered to have low solubility if the threshold concentration is <31.3 μM, moderate solubility if the threshold concentration is 31.3 μM to 250 μM, and high solubility if the threshold concentration is >250 μM.

[2] = target: BCR-FMS/BaF3 cells (Homo sapiens, UniProt P07333); experiment: BCR-FMS/BaF3 cell proliferation assay (ATPlite); format: cell-based
Description: Compounds are assessed in a variety of cell based assays. For example BCR-FMS/BaF3, BCR-KIT/BaF3, M-NFS-60, M-07e, and BAC1.2F5 cell proliferation assays are used to assess inhibitory activity of Fms or Kit and MV-4-11 cell proliferation assay is used to assess inhibitory activity in Flt-3. […] On day 1, cells are counted, then centrifuged in a conical tube for 5 minutes at 1000 rpm. The supernatant is removed and cells are re-suspended as follows: • BCR-FMS/BaF3 and BCR-KIT/BaF3: resuspend in growth media+1 mg/mL G418 (without WEHI/IL-3) to 2×10^5 cells/mL. • M-NFS-60: resuspend in growth media +62 ng/mL murine M-CSF to 5×10^5 cells/mL. • M-07e: resuspend in growth media +200 ng/mL human SCF to 5×10^5 cells/mL. • BAC1.2F5: resuspend in growth media +36 ng/mL murine M-CSF to 1.4×10^5 cells/mL. • MV-4-11: resuspend in growth media +10% FBS to 5×10^5 cells/mL. […] On day 2, compound at a maximum concentration of 5 mM is serially diluted 1:3 for a total of 8 point titration with DMSO as a control. A 1 μL aliquot of each dilution point is added to 249 μL growth media and 50 μL is added to a well containing cells, providing 10 μM compound for the maximum concentration point. The cells are incubated for 3 days at 37° C. in 5% CO2. […] ATPlite is added to each well as follows: • BCR-FMS/BaF3 and BCR-KIT/BaF3: 25 μL per well. • M-NFS-60: 25 μL per well. • M-07c: 40 μL per well. • BAC1.2F5: 50 μL per well. • MV-4-11: 40 μL per well. The cells are incubated at room temperature for 10 minutes, then luminescence is read on Safire reader. The measured luminescence correlates directly with cell number, such that the reading as a function of compound concentration is used to determine the IC50 value.

[3] = target: BCR-KIT/BaF3 cells (Homo sapiens, UniProt P10721); experiment: BCR-KIT/BaF3 cell proliferation assay (ATPlite); format: cell-based; conditions: read-out: BCR/BaF3 (IC50 μM) Kit
Description: Compounds are assessed in a variety of cell based assays. For example BCR-FMS/BaF3, BCR-KIT/BaF3, M-NFS-60, M-07e, and BAC1.2F5 cell proliferation assays are used to assess inhibitory activity of Fms or Kit and MV-4-11 cell proliferation assay is used to assess inhibitory activity in Flt-3. Reagent and assay conditions are as follows: • BCR-FMS/BaF3 and BCR-KIT/BaF3 cells: • Maintained in RPMI containing 10% FBS, 1% PenStrep, 1% NEAA, and 1% L-Glutamine, supplemented with 1 mg/mL G418 and 5% WEHI-CM (or recombinant murine IL-3). • Confluent cells are split 1:50 to 1:100 every 3-4 days. • M-NFS-60 cells (ATCC #CRL-1838): • Maintained in RPMI containing 10% FBS, 1% Hepes, 1% NaPyruvate, and 0.45% Glucose, supplemented with 62 ng/mL murine M-CSF. • Confluent cells are split 1:20 every 3-4 days. • M-07e cells (DSMZ #ACC 104): • Maintained in IMDM containing 10% FBS, supplemented with either 200 ng/mL human SCF or […] SCF (R&D Systems 255-SC). • Confluent cells are split 1:5 to 1:10 every 3-4 days. • BAC1.2F5 cells: • Maintained in Alpha-MEM containing 10% Newborn Calf Serum (Invitrogen #26010-074) supplemented with 36 ng/mL murine M-CSF. • Confluent cells are split 1:4 every 3-4 days. • MV-4-11 cells: • Maintained in Iscove's Modified Dulbecco's Medium containing 10% FBS. • Confluent cells are split 1:4 every 3-4 days. On day 1, cells are counted, then centrifuged in a conical tube for 5 minutes at 1000 rpm. The supernatant is removed and cells are re-suspended as follows: • BCR-FMS/BaF3 and BCR-KIT/BaF3: resuspend in growth media+1 mg/mL G418 (without WEHI/IL-3) to 2×10^5 cells/mL. • M-NFS-60: resuspend in growth media +62 ng/mL murine M-CSF to 5×10^5 cells/mL. • M-07e: resuspend in growth media +200 ng/mL human SCF to 5×10^5 cells/mL. • BAC1.2F5: resuspend in growth media +36 ng/mL murine M-CSF to 1.4×10^5 cells/mL. • MV-4-11: resuspend in growth media +10% FBS to 5×10^5 cells/mL. The cells are plated (50 μL) in each well of a 96-well dish (Corning 3610) and incubated at 37° C. in 5% CO2 overnight, cells plated to a final concentration of cells as follows: • BCR-FMS/BaF3 and BCR-KIT/BaF3: 10,000 cells per well. • M-NFS-60: 25,000 cells per well. • M-07e: 25,000 cells per well. • BAC1.2F5: 7,000 cells per well. • MV-4-11: 25,000 cells per well. On day 2, compound at a maximum concentration of 5 mM is serially diluted 1:3 for a total of 8 point titration with DMSO as a control. A 1 μL aliquot of each dilution point is added to 249 μL growth media and 50 μL is added to a well containing cells, providing 10 μM compound for the maximum concentration point. The cells are incubated for 3 days at 37° C. in 5% CO2. On day 5, ATPlite 1 step Luminescence Assay System (Perkin Elmer #6016739) is brought to room temperature along with the cell cultures. ATPlite is added to each well as follows: • BCR-FMS/BaF3 and BCR-KIT/BaF3: 25 μL per well. • M-NFS-60: 25 μL per well. • M-07c: 40 μL per well. • BAC1.2F5: 50 μL per well. • MV-4-11: 40 μL per well. The cells are incubated at room temperature for 10 minutes, then luminescence is read on Safire reader. The measured luminescence correlates directly with cell number, such that the reading as a function of compound concentration is used to determine the IC50 value.

[4] = target: Fms kinase (Homo sapiens (Human), UniProt P07333); experiment: Fms kinase biochemical activity assay (AlphaScreen, biotin-(E4Y)10 phosphorylation); conditions: read-out: Biochemical activity (IC50 μM) Fms
Description: In one assay the biochemical activity IC50 values are determined with respect to inhibition of Fms kinase activity, where inhibition of phosphorylation of a peptide substrate is measured as a function of compound concentration. Compounds to be tested, dissolved in DMSO (1 μL), are added to a white 384-well plate (Costar #3705). Working stocks of Fms kinase (Invitrogen #PV3249), biotin-(E4Y)10 substrate (Upstate Biotech, Cat#12-440), and ATP (Sigma, Cat#A-3377) are prepared in 25 mM Hepes pH 7.5, 0.5 mM MgCl2, 2 mM MnCl2, 2 mM DTT, 0.01% BSA, and 0.01% Tween-20. All components are added to the 384-well plate for a final concentration of 1 ng/well Fms, 30 nM biotin-(E4Y)10 (Upstate Biotechnology) and 100 μM ATP in a volume of 20 μL. Each sample is at 5% DMSO. The plate is then incubated for 20 minutes at 30° C. Just before use, working stocks of donor and acceptor beads from the AlphaScreen PY20 Detection Kit (PerkinElmer, Cat#676601M) are prepared in 25 mM Hepes pH 7.5, pH 7.4, 100 mM EDTA, 0.01% BSA. To stop the reaction, the plate is uncovered in the dark and 5 μL of Donor Beads solution (Streptavidin beads) is added to each well. The plate is incubated at room temperature for 20 minutes. Five microliters of Acceptor Beads solution (PY20 coated beads) are then added to each well. The final concentration of each bead is 10 μg/mL. The plates are incubated at room temperature for 60 minutes. Fluorescence signal is recorded on the Envision reader. […] The signal vs. compound concentration is used to determine the IC50.

Chain of BCR-FMS/BaF3 cells (P07333 20-972 limits assumed, change not shown): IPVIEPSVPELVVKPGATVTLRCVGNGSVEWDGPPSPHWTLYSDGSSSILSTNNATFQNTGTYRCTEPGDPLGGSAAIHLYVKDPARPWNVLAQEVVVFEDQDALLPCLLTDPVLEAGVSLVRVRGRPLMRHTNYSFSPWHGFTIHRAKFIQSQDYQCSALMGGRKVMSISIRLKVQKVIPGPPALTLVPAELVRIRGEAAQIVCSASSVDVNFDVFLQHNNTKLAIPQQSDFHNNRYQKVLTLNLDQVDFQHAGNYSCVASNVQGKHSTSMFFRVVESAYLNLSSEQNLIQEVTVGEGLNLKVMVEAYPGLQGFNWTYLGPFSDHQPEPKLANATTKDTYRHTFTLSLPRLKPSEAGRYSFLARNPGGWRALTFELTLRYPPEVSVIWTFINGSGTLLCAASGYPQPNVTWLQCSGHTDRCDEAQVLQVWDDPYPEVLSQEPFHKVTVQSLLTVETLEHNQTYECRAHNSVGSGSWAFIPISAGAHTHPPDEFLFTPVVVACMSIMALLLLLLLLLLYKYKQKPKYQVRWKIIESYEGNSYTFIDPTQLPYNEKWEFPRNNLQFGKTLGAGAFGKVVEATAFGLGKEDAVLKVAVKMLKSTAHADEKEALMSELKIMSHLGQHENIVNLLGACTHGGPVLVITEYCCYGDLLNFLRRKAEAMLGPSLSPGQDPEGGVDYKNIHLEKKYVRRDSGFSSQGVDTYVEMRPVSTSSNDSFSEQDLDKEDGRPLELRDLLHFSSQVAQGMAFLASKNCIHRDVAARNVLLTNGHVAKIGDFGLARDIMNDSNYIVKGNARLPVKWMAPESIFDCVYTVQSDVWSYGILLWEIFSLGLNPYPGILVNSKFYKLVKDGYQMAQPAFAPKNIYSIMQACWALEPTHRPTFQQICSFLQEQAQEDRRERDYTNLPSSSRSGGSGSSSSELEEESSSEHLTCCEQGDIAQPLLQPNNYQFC
Chain of BCR-KIT/BaF3 cells (P10721 26-976 limits assumed, change not shown): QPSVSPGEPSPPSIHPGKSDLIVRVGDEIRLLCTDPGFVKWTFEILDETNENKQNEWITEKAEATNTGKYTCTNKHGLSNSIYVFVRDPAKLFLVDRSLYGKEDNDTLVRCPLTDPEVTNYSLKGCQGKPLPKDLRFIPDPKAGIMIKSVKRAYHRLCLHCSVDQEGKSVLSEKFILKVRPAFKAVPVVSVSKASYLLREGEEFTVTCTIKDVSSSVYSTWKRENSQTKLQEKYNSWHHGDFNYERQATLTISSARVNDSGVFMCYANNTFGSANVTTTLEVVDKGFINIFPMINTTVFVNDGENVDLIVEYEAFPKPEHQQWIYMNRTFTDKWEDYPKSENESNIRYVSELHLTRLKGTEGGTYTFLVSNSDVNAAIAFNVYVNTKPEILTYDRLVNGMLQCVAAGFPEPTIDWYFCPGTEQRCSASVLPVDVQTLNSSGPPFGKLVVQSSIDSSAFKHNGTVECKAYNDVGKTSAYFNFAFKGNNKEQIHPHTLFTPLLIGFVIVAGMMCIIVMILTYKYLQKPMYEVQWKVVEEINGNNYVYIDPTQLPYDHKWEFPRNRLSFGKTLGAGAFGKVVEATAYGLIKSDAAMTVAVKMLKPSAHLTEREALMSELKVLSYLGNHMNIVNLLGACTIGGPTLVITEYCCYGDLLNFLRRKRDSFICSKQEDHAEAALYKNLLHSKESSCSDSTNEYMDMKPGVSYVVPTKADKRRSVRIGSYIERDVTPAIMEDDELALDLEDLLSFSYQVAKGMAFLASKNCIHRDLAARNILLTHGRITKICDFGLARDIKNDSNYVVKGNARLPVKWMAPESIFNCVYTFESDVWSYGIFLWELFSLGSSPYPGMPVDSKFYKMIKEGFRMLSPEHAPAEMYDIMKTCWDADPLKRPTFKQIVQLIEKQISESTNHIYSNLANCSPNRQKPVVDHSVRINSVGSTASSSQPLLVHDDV
Chain of Fms kinase (P07333 20-972): as the sequence (P07333 20-972 limits assumed, change not shown) above

| SMILES | turbidity threshold (L, M, H) 4.5 [1] | IC50 ([2]; BCR-FMS/BaF3 cells, read-out: BCR/BaF3 (IC50 μM) Fms) | BCR/BaF3 selectivity (Kit IC50/Fms IC50) ([2]; Kit IC50/Fms IC50, BCR-KIT/BaF3 vs BCR-FMS/BaF3 cells) | IC50 [3] | IC50 [4] |
| --- | --- | --- | --- | --- | --- |
| COc1ncc(F)cc1CNc1ccc(Cc2c[nH]c3ncc(C#N)cc23)c(F)n1 [Compound P-2193, 3-{2-Fluoro-6-[(5-fluoro-2-methoxy-pyridin-3-ylmethyl)-amino]-pyridin-3-ylmethyl}-1H-pyrrolo[2,3-b]pyridine-5-carbonitrile] | L (low solubility if the threshold concentration is <31.3 μM) | – | – | – | – |
| COc1ccc(CNc2ccc(Cc3c[nH]c4ncc(Cl)cc34)cn2)c(OC)n1 [Compound P-1496, [5-(5-Chloro-1H-pyrrolo[2,3-b]pyridin-3-ylmethyl)-pyridin-2-yl]-(2,6-dimethoxy-pyridin-3-ylmethyl)-amine] | – | < 0.1 µM | >20 | > 0.1 µM | < 0.1 µM |
